Measured values: patent US11679103B2, “Multi-targeting agents for Alzheimer's disease therapy” (The Regents of the University of California, priority 2018, dated 2023)

Tests used:
Aβ amyloid plaques = assay: [3H]PIB competition autoradiography in postmortem human AD frontal cortex slices; format: binding; settings: for effect on [3H]PIB binding: 1 μM; for GM/WM ratio of [3H]PIB binding: human AD frontal cortex; for displacement of [3H]PIB (words, discussion): FIG. 10 and 11; for effect on [3H]PIB binding level: GM and WM
Experimental: Post-mortem human AD frontal cortex sections (10 μm thick; human brain tissue obtained from Banner Sun Health Research Institute, Sun City, Ariz.) were preincubated in 10% alcohol PBS buffer for 10 minutes. The brain sections were placed in a glass chamber and incubated with [^3H]PIB (2 μCi/cc) in 10% alcohol PBS buffer, pH 7.4 at 37° C. for 1 h. The slices were then washed with cold 10% alcohol PBS buffer (2×3 mins), cold deionized water 1 min, respectively. The brain sections were air dried, exposed overnight on a phosphor film, and then placed on the Phosphor Autoradiographic Imaging System/Cyclone Storage Phosphor System (Packard Instruments Co). Regions of interest (ROIs) were drawn on the slices and the extent of binding of [^3H]PIB was measured with DLU/mm^2 using the OptiQuant acquisition and analysis program (Packard Instruments Co).
The Aβ plaque-α4β2* nAChR multi-agent was tested for binding to Aβ amyloid plaques in human postmortem AD brain frontal cortex slices labeled with [^3H]PIB (75-90 year olds, Braak score V-VI).

α4β2* nAChRs = α4β2* nAChRs (Rattus norvegicus, UniProt P09483+P12390); settings: rat brain slices; for displacement of [3H]cytisine: 100 nM
Experimental: In Vitro Studies: Ex vivo rat brain slices were prepared at 10 μm thick using a Leica 1850 cryotome and used for [^3H]cytisine binding. […] The apposed phosphor screens were read and analyzed by OptiQuant acquisition and analysis program of the Cyclone Storage Phosphor System (Packard Instruments Co., Boston, Mass.). Region-of-interest of same size were drawn and analyzed on brain regions using OptiQuant software and binding of [^3H]cytisine measured in Digital Light Units/mm^2 (DLU/mm^2). Data was analyzed using following procedure: (a) the non-specific binding of [^3H]cytisine was subtracted for all samples; (b) the specific binding was normalized to 100% (no competitive ligand) and (c) the binding isotherms were fit to the Hill equation (KELL BioSoft software (v 6), Cambridge, U.K.).
Nicotinic receptor binding: The Aβ plaque-α4β2* nAChR multi-agents were tested for their affinity to the α4β2* nAChRs using rat brain slices labeled with [^3H]cytisine. […] Three brain regions analyzed included thalamus, frontal cortex and subiculum.

Amyloid β = biological target: T1, Amyloid β (Homo sapiens, UniProt P05067); settings: cited from earlier work
T1 construct: host or cells: AD patients (clinical trials)

[1] = 1 μM test agent, control GM/WM approx. 2
[2] = 10 μM test agent, control GM/WM approx. 3

α4β2* nAChRs, sequence (P09483 31-630): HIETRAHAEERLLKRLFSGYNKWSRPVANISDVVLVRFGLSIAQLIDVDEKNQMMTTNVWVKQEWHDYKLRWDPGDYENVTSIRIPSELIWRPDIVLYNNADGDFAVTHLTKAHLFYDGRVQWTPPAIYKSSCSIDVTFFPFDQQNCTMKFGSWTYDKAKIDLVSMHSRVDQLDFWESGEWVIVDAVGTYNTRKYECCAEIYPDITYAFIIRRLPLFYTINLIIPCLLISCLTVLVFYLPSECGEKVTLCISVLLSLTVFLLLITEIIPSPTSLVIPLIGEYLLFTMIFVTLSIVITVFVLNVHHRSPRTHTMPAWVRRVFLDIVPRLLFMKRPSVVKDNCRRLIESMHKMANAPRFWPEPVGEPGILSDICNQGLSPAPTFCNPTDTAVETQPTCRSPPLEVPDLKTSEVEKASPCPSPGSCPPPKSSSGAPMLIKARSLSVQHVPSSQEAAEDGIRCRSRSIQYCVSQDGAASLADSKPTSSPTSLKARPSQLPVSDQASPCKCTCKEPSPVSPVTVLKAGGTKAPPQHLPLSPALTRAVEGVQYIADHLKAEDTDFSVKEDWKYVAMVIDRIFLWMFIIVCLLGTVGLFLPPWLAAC
α4β2* nAChRs, sequence (P12390 25-500): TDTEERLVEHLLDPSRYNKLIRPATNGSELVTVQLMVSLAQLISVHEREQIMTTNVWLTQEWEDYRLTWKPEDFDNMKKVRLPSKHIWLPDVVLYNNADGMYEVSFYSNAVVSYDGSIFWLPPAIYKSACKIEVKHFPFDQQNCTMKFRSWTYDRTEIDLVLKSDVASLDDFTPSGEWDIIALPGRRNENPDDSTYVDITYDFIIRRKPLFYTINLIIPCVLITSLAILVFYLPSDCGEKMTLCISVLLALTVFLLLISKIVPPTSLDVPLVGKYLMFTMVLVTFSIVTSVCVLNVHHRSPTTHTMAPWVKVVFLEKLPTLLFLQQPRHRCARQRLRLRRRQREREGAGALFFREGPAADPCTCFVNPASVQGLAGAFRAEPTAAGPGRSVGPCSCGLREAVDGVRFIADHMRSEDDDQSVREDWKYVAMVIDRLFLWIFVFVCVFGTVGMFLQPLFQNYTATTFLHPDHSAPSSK

Compound	effect on [3H]PIB binding (Aβ amyloid plaques)	GM/WM ratio of [3H]PIB binding (Aβ amyloid plaques; [1])	GM/WM ratio of [3H]PIB binding (Aβ amyloid plaques; [2])	displacement of [3H]PIB (words, discussion) (Aβ amyloid plaques; human frontal cortex)	effect on [3H]PIB binding level (Aβ amyloid plaques; 10 μM)	also measured
5-(3-methoxy-4-propyloxycinnamate)-3-(2-(S)-pyrrolidinylmethoxy)pyridine [GKS-007]	some inhibitory effect	no significant GM/WM ratio reduction				displacement of [3H]cytisine (α4β2* nAChRs): Displacement of significant amounts; affinity at α4β2* nAChR sites (α4β2* nAChRs): high affinity
5-(3′-Ethyl 3-methoxy-4-propyloxycinnamate)-3-(2-(S)-pyrrolidinylmethoxy)pyridine [GKS-006]						displacement of [3H]cytisine (α4β2* nAChRs): Displacement of significant amounts; affinity at α4β2* nAChR sites (α4β2* nAChRs): high affinity
COc1cc(/C=C/C(=O)CC(=O)/C=C/c2ccc(O)c(OC)c2)ccc1O [Curcumin, curcumin]			1.5	significant displacement effect		reduction of [3H]PIB binding (Aβ amyloid plaques; 10 μM, human frontal cortex): 50%
COc1cc(/C=C/C(=O)O)ccc1O [FA, ferulic acid]	did not significantly affect the binding	approx. 2	2	little displacement	higher levels	
CNc1ccc(N=Nc2ccc(N(C)C)cc2)cc1 [TAZA, N,N,N′-trimethyl-4,4′-azodianiline]	significant displacement	1.3		greater than observed by curcumin		
Fexofenadine curcuminate [CUR-FEX]			1.96	largest displacement	lower binding	reduction of GM/WM ratio of [3H]PIB (Aβ amyloid plaques; human AD frontal cortex (FIG. 10, 10 μM)): 35%
Fexofenadine-(3-methoxy-4-(1′-aminobutyryloxy)cinnamic acid [KD003]			2.4		higher levels	
Solanezumab: anti-amyloid monoclonal antibody						Aβ plaque load measured by PET imaging, before vs after antibody treatment (Amyloid β; large clinical trials): did not change significantly; Outcome (clinical) (Amyloid β; mild to moderate AD subjects): Did not improve
